Laboratory results: PubChem BioAssay AID1552 (Sanford-Burnham Center for Chemical Genomics, 2009)
Activity calls are given as the source filed them. The rule behind the calls is not given here.

biological target: Ubiquitin-conjugating enzyme E2 N (Homo sapiens) (UniProt P61088); test: NMR detection of UBE2N ligand binding – biophysical, purified protein (AID 1552); settings: NMR binding to purified UBE2N
Sequence (P61088 whole entry, looked up): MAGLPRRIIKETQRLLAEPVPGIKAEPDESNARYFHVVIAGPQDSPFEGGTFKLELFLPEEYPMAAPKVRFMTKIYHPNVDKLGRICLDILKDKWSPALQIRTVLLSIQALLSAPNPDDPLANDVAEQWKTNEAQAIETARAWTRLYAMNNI

Compound	Kd
OC12CC3CC(C1)C1(NCCS1)C(C3)C2 (stereo not given)	> 4 mM (inactive)
Cc1ccc(C)n1-c1ccc(C(=O)N2CCOCC2)cc1	> 4 mM (inactive)
c1ccc(C[N+]23CCN(CC2)CC3)cc1	> 4 mM (inactive)
OCc1snnc1-c1ccccc1	> 4 mM (inactive)
Cc1cc2cc3c(C)cc(=O)oc3c(C)c2o1	> 4 mM (inactive)
O=C(O)c1ncoc1-c1ccccc1	> 4 mM (inactive)
Cc1ccc(C(=O)NCCO)c(Cl)c1	> 4 mM (inactive)
c1ccc(CCc2nc(-c3cccnc3)no2)cc1	> 4 mM (inactive)
O=C(O)CCCCC1SCC2NC(=O)NC21 (stereo not given)	> 4 mM (inactive)
CN1CCC(N2CCOCC2)CC1	> 4 mM (inactive)
COc1ccc(-c2oc3c(CC=C(C)C)c(O[C@@H]4O[C@H](CO)[C@@H](O)[C@H](O)[C@H]4O)cc(O)c3c(=O)c2O[C@@H]2O[C@@H](C)[C@H](O)[C@@H](O)[C@H]2O)cc1	> 4 mM (inactive)
Cc1nc2nc(-c3ccco3)nn2c(C)c1Cl	> 4 mM (inactive)
COc1ccc(C(=O)NC2=NCCS2)cc1OC	> 4 mM (inactive)
CC1(C)CN=C(Nc2nc3ccccc3s2)S1	> 4 mM (inactive)
CC1=NNC(=O)C1CCc1ccncc1 (stereo not given)	> 4 mM (inactive)
Clc1ccccc1OCc1nc(-c2ccccn2)no1	> 4 mM (inactive)
CC(=O)Nc1ccc(C(=O)NC2=NCCS2)cc1	> 4 mM (inactive)
CCOc1cc(C)c(Cl)cc1S(=O)(=O)N(C)C	> 4 mM (inactive)
Cc1ccc2[nH]c3nc(=S)[nH]nc3c2c1	> 4 mM (inactive)
N#Cc1cnc(N2CCCCC2)nc1N	> 4 mM (inactive)

Compound	Kd
COC(=O)c1scc(C)c1N	> 4 mM (inactive)
O=c1nc(NCc2ccco2)sc2ncccc12	> 4 mM (inactive)
COc1ccc2cnn(-c3ccccc3)c(=O)c2c1OC	> 4 mM (inactive)
COc1ccc(C(C)=O)c(OC)c1	> 4 mM (inactive)
Cc1occc1C(=O)N1CCC2(CC1)OCCO2	> 4 mM (inactive)
Nc1nc(-c2ccc(F)c(F)c2)cs1	> 4 mM (inactive)
CCOC(=O)c1cnc2n(c1=O)CCS2	> 4 mM (inactive)
CC1(C)NCCN2C(=O)CSC21 (stereo not given)	> 4 mM (inactive)
FC(F)(F)c1cc(-c2ccco2)nc(N2CCOCC2)n1	> 4 mM (inactive)
O=C1NC(=S)N/C1=C\c1ccccc1	> 4 mM (inactive)
C[C@@H]1CC[C@H]2[C@@H](C)C(=O)O[C@@H]3OC4(C)CC[C@@H]1[C@]32OO4	> 4 mM (inactive)
C/C=C(\C)c1nnc(NC(=O)c2ccco2)s1	> 4 mM (inactive)
NC(=O)/C=C/C(=O)Nc1ccccc1	> 4 mM (inactive)
O=C(O)CCn1cncn1	> 4 mM (inactive)
NCc1nc2ccccc2s1	> 4 mM (inactive)
COc1ccc(Cc2nnc3c4cnn(C)c4ncn23)cc1	> 4 mM (inactive)
S=C(Nc1ccccc1)Nc1nncs1	> 4 mM (inactive)
O=C(Nc1ccc(Cl)cc1)N1CCCC1	> 4 mM (inactive)
O=c1n(-c2ccccc2)c(=O)n2n1CCCC2	> 4 mM (inactive)
Nc1ccc(N2CCOCC2)c(Cl)c1	> 4 mM (inactive)

Compound	Kd
Nc1ccccc1C(=O)N1CCNC(=O)C1	> 4 mM (inactive)
CCSc1nc2ccccc2n1CC(N)=O	> 4 mM (inactive)
COc1ccc(-c2c(C)n([O-])c(C)c(C)[n+]2=O)cc1	> 4 mM (inactive)
CC(=O)OC[C@@]1(O)C[C@@]23CCC4c5ccoc5CC[C@]4(C)C2CC[C@@H]1C3 (stereo not given in full)	> 4 mM (inactive)
O=C(c1nc2ncccn2n1)N1CCc2ccccc2C1	> 4 mM (inactive)
O=C(C1CCC(C(=O)N2CCCC2)CC1)N1CCCC1 (stereo not given)	> 4 mM (inactive)
Cc1cc(C)n2nc(SCC(=O)c3ccccc3)nc2n1	> 4 mM (inactive)
O=C(O)c1cc2ccccc2cn1	> 4 mM (inactive)
COc1ccc(-c2ccc(=O)n(CC(N)=O)n2)cc1	> 4 mM (inactive)
Cc1ccc(C(=O)N2CCC(C(N)=O)CC2)cc1C	> 4 mM (inactive)
N#Cc1cccc(Cn2nnc(-c3ccccc3)n2)c1	> 4 mM (inactive)
COC(=O)c1ccc(NC(=O)CC2NCCNC2=O)cc1 (stereo not given)	> 4 mM (inactive)
S=c1nc[nH]c2c1cnn2-c1ccccc1	> 4 mM (inactive)
CC(=O)Nc1ccc(S(=O)(=O)N2CCN=C2C)cc1	> 4 mM (inactive)
NC(=NCCC[C@H](N)C(=O)O)NC(CCC(=O)O)C(=O)O (stereo not given in full)	> 4 mM (inactive)
Cn1c(NCc2ccco2)nc2ccccc21	> 4 mM (inactive)
CSc1nc(O)cc(=O)[nH]1	> 4 mM (inactive)
O=c1ccc2cc(O[C@@H]3O[C@H](CO)[C@@H](O)[C@H](O)[C@H]3O)c(O)cc2o1	> 4 mM (inactive)
NC(=O)CSc1nc2[nH]ncc2c(=O)[nH]1	> 4 mM (inactive)
Cn1ncc(SCc2ccco2)c(Cl)c1=O	> 4 mM (inactive)
